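Cultured in 96-well plates, cells were exposed to test compound for 48 hours across five concentrations. TGI denotes the concentration required for complete inhibition of growth.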
Columns and labels:
Assay in all cases: growth of human tumour cells (NCI), 48 h
[1] = test system: RXF 393 renal
[2] = test system: OVCAR-4 ovarian
[3] = test system: 786-0 renal
[4] = test system: SF-268 CNS
[5] = test system: UO-31 renal
[6] = test system: DMS 273 small cell lung
[7] = test system: CAKI-1 renal
[8] = test system: A498 renal
[9] = test system: SNB-78 CNS
[10] = test system: HT29 colon
[11] = test system: IGROV1 ovarian
[12] = test system: K-562 leukemia
[13] = test system: LXFL 529 NSCLC
[14] = test system: RXF-631 renal
[15] = test system: UACC-62 melanoma
[16] = test system: XF 498 CNS
[17] = test system: HL-60(TB) leukemia
[18] = test system: SNB-75 CNS
[19] = test system: SK-OV-3 ovarian
[20] = test system: M14 melanoma
[21] = test system: KM20L2 colon
[22] = test system: SN12C renal
[23] = test system: EKVX NSCLC
[24] = test system: NCI-H522 lung
[25] = test system: MALME-3M melanoma
[26] = test system: U251 CNS
[27] = test system: CCRF-CEM leukemia
[28] = test system: HCT-116 colon
[29] = test system: HOP-18 NSCLC
[30] = test system: DMS 114 small cell lung
[31] = test system: COLO 205 colon
[32] = test system: NCI-H23 lung
[33] = test system: M19-MEL melanoma
[34] = test system: UACC-257 melanoma
[35] = test system: OVCAR-3 ovarian
[36] = test system: HCC-2998 colon
[37] = test system: SR leukemia
[38] = test system: HOP-62 NSCLC
[39] = test system: MOLT-4 leukemia
[40] = test system: SNB-19 CNS
[41] = test system: NCI-H226 lung
[42] = test system: KM12 colon
[43] = test system: SF-539 CNS
[44] = test system: LOX IMVI melanoma
[45] = test system: DLD-1 colon
[46] = test system: NCI-H460 lung
[47] = test system: TK-10 renal
[48] = test system: OVCAR-5 ovarian
[49] = test system: SK-MEL-5 melanoma
[50] = test system: ACHN renal
[51] = test system: SF-295 CNS
[52] = test system: SW-620 colon
[53] = test system: OVCAR-8 ovarian
[54] = test system: SK-MEL-2 melanoma
[55] = test system: HCT-15 colon
[56] = test system: HOP-92 NSCLC
[57] = test system: A549 NSCLC
[58] = test system: SK-MEL-28 melanoma
[59] = test system: RPMI-8226 leukemia

Measured: TGI

COC(=O)N/N=c1\cc(C(=O)Nc2ccc(C)c(C)c2)oc2cc(O)ccc12
not listed: [59]
> 100 µM: all other assays above

CN1S(=O)(=O)N(C)P12(N=P(CP(=NP13(N(C)S(=O)(=O)N1C)N(C)S(=O)(=O)N3C)(c1ccccc1)c1ccccc1)(c1ccccc1)c1ccccc1)N(C)S(=O)(=O)N2C
not listed: [2] | [37] | [51]
> 100 µM: all other assays above

COC(=O)C1CC(=O)O[C@H]1c1ccc(OC)c(OC)c1 (stereo partly specified)
not listed: [24] | [40]
> 100 µM: all other assays above
